From US6369057B1, “Quinoxalines, processes for their preparation and their use” (Aventis Pharma Deutschland GmbH, priority 1991, dated 2002)
Converted amounts (≈) assume the structure as drawn.

Legend:
[1] = test system: HIV; assay: Test of preparations against HIV in cell culture (T-cell culture assay); format: cell-based; settings: Human immunodeficiency virus 1, 72 h; lowest concentration where no giant cells were observed; HIV-infected lymphocytes from donor blood, 3 days at 37° C.
Experimental: Test of Preparations Against HIV in Cell Culture
Complete medium additionally contains 20% fetal calf serum and 40 IU/ml recombinant interleukin 2.
Lymphocytes which have been isolated from fresh donor blood by means of Ficoll gradient centrifugation are cultured for 36 hours in complete medium with an addition of 2 μg/ml phytohemagglutinin (Wellcome) at 37° C. under 5% of CO2. After 10% of DMSO has been added, the cells are frozen at a density of 5 [formula]10^6 and stored in liquid nitrogen. For the test, the cells are defrosted, washed in RPMI medium and cultured for 3-4 days in the complete medium.
The test preparations were dissolved in DMSO at a concentration of 16.7 mg/ml and diluted in complete medium to 1 mg/ml.
0.4 ml of medium was introduced into 24-multiwell dishes. 0.1 ml of the dissolved preparation was added to the upper row of the dish, and, by transferring 0.1 ml portions, a geometric dilution series was established. Controls without preparation always contained 0.4 ml of complete medium containing 0.5% of DMSO. Lymphocyte cultures with a cell density of 5 [formula]10^5 cells/ml were infected by adding 1/50 volume supernatant from HIV-infected lymphocyte cultures. The titer of these culture supernatants was determined by end-point titration as 1-5 [formula]10^6 infectious units/ml. After 30 minutes' incubation at 37° C., the infected lymphocytes were removed by centrifugation and taken up in an equal volume of medium. From this cell suspension, 0.6 ml aliquots were transferred into all wells of the test plate. The mixtures were incubated for 3 days at 37° C.
The infected cell cultures were examined under the microscope for the presence of giant cells, which indicate active virus multiplication in the culture. The lowest concentration of preparation where no giant cells were observed was determined as inhibitory concentration against HIV. As a control, the supernatants from the culture plates were tested for the presence of HIV antigen with the aid of an HIV antigen test following the manufacturer's instructions (Organon).

[2] = molecular target: T1, HIV reverse transcriptase (RT) (Human immunodeficiency virus type 1 group M subtype B, UniProt P03366); assay: Assay for HIV reverse transcriptase inhibition (scintillation proximity assay); format: biochemical; settings: RT from HIV cloned in E. coli; SPA, 60 minutes (37° C.); read-out: Reverse Transcriptase Assay IC50 (converted)
T1 construct: The enzyme RT (from HIV cloned in E. coli); purchased HT-Biotechnology Ltd, Cambridge, UK; host or cells: E. coli
Experimental: Assay of the Substances for HIV Reverse Transcriptase Inhibition
The activity of reverse transcriptase (RT) was determined with the aid of a scintillation proximity assay (SPA).
The reagent kit for the RT-SPA was obtained from Amersham/Buchler (Braunschweig).
The enzyme RT (from HIV cloned in E. coli) originated from HT-Biotechnology Ltd, Cambridge, UK.
The assay was carried out using the manufacturer's (Amersham) protocol manual, with the following modifications: bovine serum albumin was added to the assay buffer to give an end concentration of 0.5 mg/ml the assay was carried out in Eppendorf reaction vessels, using 100 μl volume per batch the manufacturer's RT concentrate (5000 U/ml) was diluted in Tris-HCl buffer 20 mM; pH 7.2; 30% of glycerol, to an activity of 15 U per ml the incubation time for the mixtures was 60 minutes (37° C.) after stopping the reaction and “developing” with the bead suspension, 130 μl of mixture were transferred to 4.5 ml of Tris-HCl buffer, 10 mM; pH 7.4; 0.15 M NaCl, and the tritium activity was measured by means of a [formula]-counter.
For a pre-assay for inhibitory activity, the substances were dissolved in DMSO (stock solution c=1 mg/ml), and tested as a 10^−1, 10^−2, 10^−3, etc., dilution in DMSO.
To determine IC50 values, the inhibitor stock solutions were diluted further in Tris-HCl buffer, 50 mM, pH 8, and tested in suitable concentrations.
The concentration corresponding to a 50% enzyme inhibition was determined from a plot of RT activity versus log Clnh.

Structure (SMILES)	melting point	MIC [1]	IC50 [2]
CC(=O)CCN1c2ccccc2NC(=O)C1C (racemic) [XXXIV, (3RS)-3-Methyl-4-N-(3-oxo-1-butyl)-3,4-dihydroquinoxalin-2(1H)-one]	108 to 109 °C		
C[C@H]1C(=O)Nc2c(cc(Cl)cc2[N+](=O)[O-])N1C(=O)OCc1ccccc1 [Example IV, (3S)-4-N-(Benzyloxycarbonyl)-6-chloro-3-methyl-8-nitro-3,4-dihydroquinoxalin-2(1H)-one]	85 °C	> 0.8 µg/mL	
C[C@H]1C(=O)Nc2c(N)cc(Cl)cc2N1C(=O)OCc1ccccc1 [Example V, (3S)-8-Amino-4-N-(benzyloxycarbonyl)-6-chloro-3-methyl-3,4-dihydroquinoxalin-2(1H)-one]	152 to 154 °C		21700 nM
C[C@H]1C(=O)Nc2ccc(Cl)cc2N1C(=O)Oc1ccc(F)cc1 [Example X, (3S)-6-Chloro-4-N-(4-fluorophenoxycarbonyl)-3-methyl-3,4-dihydroquinoxalin-2(1H)-one]	168 to 170 °C	0.8 µg/mL (≈ 2.39 µM)	
C[C@H]1C(=O)Nc2ccc(Cl)cc2N1C(=O)Oc1ccc(Cl)cc1 [Example XI, (3S)-6-Chloro-4-N-(4-chlorophenoxycarbonyl)-3-methyl-3,4-dihydroquinoxalin-2(1H)-one]	185 to 188 °C		
CC(C)=CCN1CC(=O)Nc2ccc(Cl)cc21 [Example XV, 6-Chloro-4-N-(3-methyl-2-buten-1-yl)-3,4-dihydro-quinoxalin-2(1H)-one]	150 to 151 °C		
C=CC(C)(C)C1C(=O)Nc2ccc(Cl)cc2N1CC=C(C)C (stereo not drawn) [Example XVI, 6-Chloro-4-N-(3-methyl-2-buten-1-yl)-3-(1,1-dimethyl-2-propen-1-yl)-3,4-dihydroquinoxalin-2(1H)-one]	110 to 112 °C		
CC(C)=CCN1CC(=O)Nc2cc(S(=O)(=O)Oc3ccccc3)ccc21 [Example XXX, 4-(3-Methyl-2-buten-1-yl)-7-phenoxysulfonyl-3,4-dihydroquinoxalin-2(1H)-one]	132 °C		
COc1ccc(OC(=O)N2c3cc(Cl)ccc3NC(=O)[C@@H]2C)cc1 [IX, (3S)-6-Chloro-4-N-(4-methoxyphenoxycarbonyl)-3-methyl-3,4-dihydroquinoxalin-2(1H)-one]	187 to 190 °C		
CC(C)=CCN1c2cc(Cl)ccc2NC(=O)[C@@H]1C [VI-A, (3S)-6-Chloro-3-methyl-4-N-(3-methyl-2-buten-1-yl)-3,4-dihydroquinoxalin-2(1H)-one]	117 to 118 °C	0.16 µg/mL (≈ 0.604 µM)	302 nM
CC=CCN1c2cc(Cl)ccc2NC(=O)[C@@H]1C [VII, (3S)-6-Chloro-3-methyl-4-N-(2-buten-1-yl)-3,4-dihydroquinoxalin-2(1H)-one]	87 to 88 °C	< 0.16 µg/mL	399 nM
C=C(C)OC(=O)N1c2ccc(C)cc2NC(=O)C1(C)C [VIII, 4-N-(Isopropenyloxycarbonyl)-3,3,7-trimethyl-3,4-di-hydroquinoxalin-2(1H)-one]	185 °C		
C=COC(=O)N1c2cc(Cl)ccc2NC(=O)[C@@H]1C [XIV, (3S)-6-Chloro-3-methyl-4-N-(vinyloxycarbonyl)-3,4-di-hydroquinoxalin-2(1H)-one]	177 to 179 °C	< 0.16 µg/mL	600 nM
C=C(C)OC(=O)N1c2cc(Cl)ccc2NC(=S)[C@@H]1C [XXIII, (3S)-6-Chloro-4-N-(isopropenyloxycarbonyl)-3-methyl-3,4-dihydroquinoxaline-2(1H)-thione]	148 to 150 °C	< 0.01 µg/mL	84.2 nM
O=C1CNc2ccc(S(=O)(=O)Oc3ccccc3)cc2N1 [XXIX, 7-Phenoxysulfonyl-3,4-dihydroquinoxalin-2(1H)-one]	253 to 254 °C		
O=C1Nc2cc(S(=O)(=O)Oc3ccccc3)ccc2N2C(=O)CCC12 (stereo not drawn) [XXVII, 7-Phenoxysulfonyl-3,3a-dihydropyrrolo[1,2-a]quinoxaline-1,4(2H,5H)-dione]	140 °C (dec.)		

More lines, main results first:

melting point	Structure (SMILES)	MIC [1]	IC50 [2]
122 to 123 °C	C[C@@H]1Nc2cc(Cl)ccc2NC1=O [Example IB, (3S)-6-Chloro-3-methyl-3,4-dihydroquinoxalin-2(1H)-one]		
123 to 124 °C	C[C@H]1Nc2cc(Cl)ccc2NC1=O [Example IC, (3R)-6-Chloro-3-methyl-3,4-dihydroquinoxalin-2(1H)-one]		
185 °C	O=C1Nc2cc(Cl)ccc2N[C@H]1Cc1ccccc1 [Example II, (3S)-3-Benzyl-7-chloro-3,4-dihydroquinoxalin-2(1H)-one]		
133 to 136 °C	C[C@H]1C(=O)Nc2ccc(Cl)cc2N1C(=O)OCCBr [Example XII, (3S)-4-N-(2-Bromoethyloxycarbonyl)-6-chloro-3-methyl-3,4-dihydroquinoxalin-2(1H)-one]	< 0.8 µg/mL	
151 °C	COc1cc2c(cc1OC)NC(C)C(=O)N2 (stereo not drawn) [Example XVII, 6,7-Dimethoxy-3-methyl-3,4-dihydroquinoxalin-2(1H)-one]		
142 to 144 °C	C[C@H]1C(=O)Nc2ccc(Cl)cc2N1C(=O)Cl [Example XXXV, (3S)-6-Chloro-4-N-chlorocarbonyl-3-methyl-3,4-dihydroquinoxalin-2(1H)-one]		
132 to 133 °C	CC1(C)Nc2ccc(Cl)cc2N(C2CC2)C1=O [XIX, 7-Chloro-1-N-(cyclopropyl)-3,3-dimethyl-3,4-dihydroquinoxalin-2(1H)-one]		
93 to 94 °C	COCCOC(=O)N1c2cc(Cl)ccc2NC(=O)[C@@H]1C [XXXVI, (3S)-6-Chloro-4-N-(2-methoxyethoxycarbonyl)-3-methyl-3,4-dihydroquinoxalin-2(1H)-one]		
